Assay results published in patent US20250025445A1, “METHOD OF CARDIOPROTECTION” (Race Oncology LTD., priority 2021, published 2025).

Tested on: H929 multiple myeloma cells
Experiment: H929 multiple myeloma cell viability (CellTiter-Glo)
Format: cell-based, human
Conditions: 72 hours, FIG. 4
Description: Human multiple myeloma NCI-H929 cells were cultured using RPMI-1640 growth media (Sigma-Aldrich), supplemented with 2 mM L-glutamine (Thermo Fisher Scientific), 10% (v/v) foetal calf serum (Sigma-Aldrich) and 0.05 mM 2-mercaptoethanol (Sigma-Aldrich). Briefly, 0.5×10^6 H929 were seeded and grown in Corning® T75 flasks (Sigma-Aldrich) in an incubator at 37° C. under 5% CO2 conditions. At 80-90% confluency, the cell suspension was then collected into Corning® 50 mL centrifuge tubes (Sigma-Aldrich) and centrifuged at 300×g for 10 mins at room temperature. The resulting supernatant were discarded and H929 pellet was resuspended with 5-10 mL of pre-warmed H929 growth media. Total viable cells were enumerated with Invitrogen™ Countess Cell Counter (Thermo Fisher Scientific, New South Wales, Australia) and 1×10^4 live H929 were seeded in triplicate into Corning® 96-well white polystyrene microplate (Sigma). […] The concentrations were as follows 0 nM, 15.62 nM, 62.5 nM, 250 nM, 500 nM, 1 μM, 5 μM, and 10 μM. […] Vehicle controls were incubated with media supplemented with either sterile water or DMSO. […] This was repeated at 48 hours and 72 hours. […] Both FB23/2 and brequinar (MedChemExpress) were dissolved in dimethyl sulfoxide (DMSO; […]

Structure (SMILES): C(=NNC1=NCCN1)c1c2ccccc2c(C=NNC2=NCCN2)c2ccccc12 [bisantrene, 9,10-anthracenedicarboxaldehyde bis [(4,5-dihydro-1H-imidazol-2-yl)hydrazone]]
- toxicity to H929 multiple myeloma cells (0-5 μM bisantrene alone): concentration-dependent toxicity
- interference with toxicity of carfilzomib to H929 cells (0-5 μM bisantrene with 1 μM carfilzomib): did not interfere with the toxicity
